Assay results: the supplement of paper PMC10949913

How the values were obtained:
Experiment in all cases: area under concentration-response curve (viability) (AUC (a.u.)); higher = less active
Settings in all cases: 48 h
CU-ACC2 = tested on: CU-ACC2
Procedure, shortened: (§1)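 For each of three adrenocortical carcinoma cell lines, 500–1,000 cells/well were placed in 5 µL medium in 1,536-well plates. A 23 nL volume of every library compound was added at 11 concentrations. Following 48 h, a 15-minute room-temperature CellTiter-Glo step preceded luminescence reading, with signals normalised per plate to vehicle and empty-well controls. AC50 and area under the curve were derived by curve fitting, retaining only inhibitory or non-responding curve classes.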

NCI-H295R = tested on: NCI-H295R
Procedure, shortened: as §1

CU-ACC1 = tested on: CU-ACC1
Procedure, shortened: as §1

## O=C(O)C1CCCN(CCC=C(c2ccccc2)c2ccccc2)C1 (centres undefined)
CU-ACC2
  area under concentration-response curve: 520
NCI-H295R
  area under concentration-response curve: 539
CU-ACC1
  area under concentration-response curve: 540

## Clc1cccc(-c2ccc(-c3nnc(CCCc4ccc5cccnc5n4)o3)cc2)c1
CU-ACC2
  area under concentration-response curve: 627
NCI-H295R
  area under concentration-response curve: 594
CU-ACC1
  area under concentration-response curve: 547

## COc1cc(C(C)C)c(Oc2cnc(NC(CO)CO)nc2N)cc1I
CU-ACC2
  area under concentration-response curve: 661
NCI-H295R
  area under concentration-response curve: 594
CU-ACC1
  area under concentration-response curve: 557

## C[C@@H]1CC(=O)Nc2cccc(-c3ccc4c(c3)c(-c3cnn(C)c3)nn4C)c2N1
CU-ACC2
  area under concentration-response curve: 602
NCI-H295R
  area under concentration-response curve: 550
CU-ACC1
  area under concentration-response curve: 517

## C[C@H](Cc1ccc(O)c(O)c1)[C@@H](C)Cc1ccc(O)c(O)c1
CU-ACC2
  area under concentration-response curve: 565
NCI-H295R
  area under concentration-response curve: 532
CU-ACC1
  area under concentration-response curve: 496

## COC1=C(OC)C=C2CN(CCC3=CC=C(C=C3)[N]4N=NC(=N4)C5=CC(=C(OC)C=C5NC(=O)\C6=C\C(=O)C7=CC=CC=C7O6)OC)CCC2=C1
CU-ACC2
  area under concentration-response curve: 654
NCI-H295R
  area under concentration-response curve: 688
CU-ACC1
  area under concentration-response curve: 735

## FC1=CC=C(C=C1)N2/C=C\C=C(C(=O)NC3=CC=C(OC4=C5C=C[NH]C5=NC=C4)C(=C3)F)/C2=O
CU-ACC2
  area under concentration-response curve: 616
NCI-H295R
  area under concentration-response curve: 535
CU-ACC1
  area under concentration-response curve: 588

## CC(/C=C1\SC(=S)N(CC(=O)O)C1=O)=C\c1ccccc1
CU-ACC2
  area under concentration-response curve: 594
NCI-H295R
  area under concentration-response curve: 492
CU-ACC1
  area under concentration-response curve: 494

## O=C(O)C(=O)c1cn(Cc2ccccc2)c2ccc(-c3ccc(OC(F)(F)F)cc3)cc12
CU-ACC2
  area under concentration-response curve: 489
NCI-H295R
  area under concentration-response curve: 489
CU-ACC1
  area under concentration-response curve: 474

## C[C@H]1O[C@H](O[C@H]2[C@H](O)[C@@H](O)[C@@H](O[C@H]3[C@H](O)[C@@H](O)C(O)O[C@@H]3CO)O[C@@H]2CO)[C@H](O)[C@@H](O)[C@@H]1N[C@H]1C=C(CO)[C@@H](O)[C@H](O)[C@H]1O (some centres undefined)
CU-ACC2
  area under concentration-response curve: 482
NCI-H295R
  area under concentration-response curve: 447
CU-ACC1
  area under concentration-response curve: 414

## CN(CCO)C1CCN(c2ccc(Nc3ncc4c5ccnc(F)c5n(C5CCCC5)c4n3)nc2)CC1
CU-ACC2
  area under concentration-response curve: 658
NCI-H295R
  area under concentration-response curve: 579
CU-ACC1
  area under concentration-response curve: 467

## CC(C)[C@H]1C(=O)N[C@@H](CCCN=C(N)N)C(=O)NCC(=O)N[C@@H](CC(=O)O)C(=O)N[C@H](Cc2ccccc2)C(=O)N1C
CU-ACC2
  area under concentration-response curve: 624
NCI-H295R
  area under concentration-response curve: 601
CU-ACC1
  area under concentration-response curve: 443

## N#Cc1c(N(CC(=O)[O-])CC(=O)[O-])sc(C(=O)[O-])c1CC(=O)[O-]
CU-ACC2
  area under concentration-response curve: 544
NCI-H295R
  area under concentration-response curve: 497
CU-ACC1
  area under concentration-response curve: 478

## O=C(O)c1ccc(CN2CCC(CN[C@@H]3C[C@H]3c3ccccc3)CC2)cc1
CU-ACC2
  area under concentration-response curve: 540
NCI-H295R
  area under concentration-response curve: 490
CU-ACC1
  area under concentration-response curve: 465

## NCCCCCC(=O)O
CU-ACC2
  area under concentration-response curve: 585
NCI-H295R
  area under concentration-response curve: 540
CU-ACC1
  area under concentration-response curve: 509

## N\C1=N\C2=C(N=C[N]2COCCO)C(=O)N1
CU-ACC2
  area under concentration-response curve: 616
NCI-H295R
  area under concentration-response curve: 584
CU-ACC1
  area under concentration-response curve: 420

## CNCC(O)c1ccc(O)cc1 (centres undefined)
CU-ACC2
  area under concentration-response curve: 618
NCI-H295R
  area under concentration-response curve: 579
CU-ACC1
  area under concentration-response curve: 565

## Cc1nn(C)c(COc2ccc(N3CCN([S+](=O)([O-])N(C)C)CC3)cc2)c1-c1cccc2c(CCCOc3cccc4ccccc34)c(C(=O)O)n(CCN3CCOCC3)c12
CU-ACC2
  area under concentration-response curve: 580
NCI-H295R
  area under concentration-response curve: 508
CU-ACC1
  area under concentration-response curve: 517

## CC1(C)NC(=O)N(c2ccc([N+](=O)[O-])c(C(F)(F)F)c2)C1=O
CU-ACC2
  area under concentration-response curve: 634
NCI-H295R
  area under concentration-response curve: 543
CU-ACC1
  area under concentration-response curve: 511

## CC(C)[C@H]1C(=O)N[C@H](CO)Cc2c[nH]c3cccc(c23)N1C
CU-ACC2
  area under concentration-response curve: 539
NCI-H295R
  area under concentration-response curve: 575
CU-ACC1
  area under concentration-response curve: 384

## CC1=C(C)C\2=C(S1)[N]3C(=NN=C3C(CC(N)=O)\N=C2C4=CC=C(Cl)C=C4)C (centres undefined)
CU-ACC2
  area under concentration-response curve: 480
NCI-H295R
  area under concentration-response curve: 431
CU-ACC1
  area under concentration-response curve: 439

## C=C(C)[C@@H]1CC[C@]2(C)CC[C@]3(C)[C@H](CC[C@@H]4[C@@]5(C)CC[C@H](O)C(C)(C)[C@@H]5CC[C@]43C)[C@@H]12
CU-ACC2
  area under concentration-response curve: 582
NCI-H295R
  area under concentration-response curve: 551
CU-ACC1
  area under concentration-response curve: 484

## C\C1=C(/C)C(=O)\C(=C(\C)C1=O)C(CCCCCC(O)=O)C2=CC=CC=C2 (centres undefined)
CU-ACC2
  area under concentration-response curve: 613
NCI-H295R
  area under concentration-response curve: 550
CU-ACC1
  area under concentration-response curve: 545

## CC12CC3CC(C)(C1)CC(N)(C3)C2
CU-ACC2
  area under concentration-response curve: 431
NCI-H295R
  area under concentration-response curve: 457
CU-ACC1
  area under concentration-response curve: 437

## COc1cc2ncnc(Nc3ccc(F)c(Cl)c3)c2cc1OCCCN1CCOCC1
CU-ACC2
  area under concentration-response curve: 624
NCI-H295R
  area under concentration-response curve: 594
CU-ACC1
  area under concentration-response curve: 562

## COc1ccc(Oc2cc(NCCC(F)(F)F)c3ncc(-c4ccc(C(=O)NC5CC5)c(C)c4)n3n2)c(F)c1F
CU-ACC2
  area under concentration-response curve: 459
NCI-H295R
  area under concentration-response curve: 501
CU-ACC1
  area under concentration-response curve: 487

## CNC(=O)c1c(-c2ccc(F)cc2)oc2cc(N(CCO)[S+](C)(=O)[O-])c(C3CC3)cc12
CU-ACC2
  area under concentration-response curve: 580
NCI-H295R
  area under concentration-response curve: 496
CU-ACC1
  area under concentration-response curve: 470

## Cn1c(COP(=O)(NCCBr)NCCBr)cnc1[N+](=O)[O-]
CU-ACC2
  area under concentration-response curve: 575
NCI-H295R
  area under concentration-response curve: 514
CU-ACC1
  area under concentration-response curve: 394

## CC1(C)Cc2c(-c3ccccc3)c(-c3ccc(Cl)cc3)c(CC(=O)O)n2C1
CU-ACC2
  area under concentration-response curve: 559
NCI-H295R
  area under concentration-response curve: 516
CU-ACC1
  area under concentration-response curve: 475

## COc1ccc2cc(OCC3(C(=O)O)CN(C(=O)c4ccc(F)cc4)C3)ccc2c1
CU-ACC2
  area under concentration-response curve: 606
NCI-H295R
  area under concentration-response curve: 552
CU-ACC1
  area under concentration-response curve: 556

## CC(C)(C)OC(=O)N[C@H]1CCCCC/C=C\[C@@H]2C[C@@]2(C(=O)N[S+](=O)([O-])C2CC2)NC(=O)[C@@H]2C[C@@H](OC(=O)N3Cc4cccc(F)c4C3)CN2C1=O
CU-ACC2
  area under concentration-response curve: 503
NCI-H295R
  area under concentration-response curve: 472
CU-ACC1
  area under concentration-response curve: 414

## O=C(O)CNC(=O)C1C(=O)N(C2CCCCC2)C(=O)N(C2CCCCC2)C1=O
CU-ACC2
  area under concentration-response curve: 483
NCI-H295R
  area under concentration-response curve: 479
CU-ACC1
  area under concentration-response curve: 473

## Cc1noc2c1-c1ccccc1C(c1ccc(Cl)cc1)=N[C@H]2CC(N)=O
CU-ACC2
  area under concentration-response curve: 568
NCI-H295R
  area under concentration-response curve: 466
CU-ACC1
  area under concentration-response curve: 495

## OC(Cn1cncn1)(Cn1cncn1)c1ccc(F)cc1F
CU-ACC2
  area under concentration-response curve: 546
NCI-H295R
  area under concentration-response curve: 514
CU-ACC1
  area under concentration-response curve: 466

## CO[C@H]1O[C@@H]2O[C@@]3(C)CC[C@H]4[C@H](C)CC[C@@H]([C@H]1C)[C@@]24OO3
CU-ACC2
  area under concentration-response curve: 553
NCI-H295R
  area under concentration-response curve: 506
CU-ACC1
  area under concentration-response curve: 470

## Cc1ccc([S+](=O)([O-])Nc2nc3ccccc3nc2Nc2ccc3nsnc3c2)cc1
CU-ACC2
  area under concentration-response curve: 640
NCI-H295R
  area under concentration-response curve: 535
CU-ACC1
  area under concentration-response curve: 558

## CCN(CC)CCN1C(=O)\C(=N/C2=CC=CC=C12)CC3=CC=C(OC)C=C3
CU-ACC2
  area under concentration-response curve: 526
NCI-H295R
  area under concentration-response curve: 501
CU-ACC1
  area under concentration-response curve: 472

## CC[C@]12CC[C@H]3[C@@H](CCC/4=C/C(=O)CC[C@H]34)[C@@H]1CC[C@@]2(O)C#C
CU-ACC2
  area under concentration-response curve: 614
NCI-H295R
  area under concentration-response curve: 575
CU-ACC1
  area under concentration-response curve: 519
